Source: PMC5471453, “Dual-targeted peptide-conjugated multifunctional fluorescent probe with AIEgen for efficient nucleus-specific imaging and long-term tracing of cancer cells” (Chemical Science, 2017)

Experiments:
[1] = system: A375 cells co-cultured with MDA-MB-231 cells or HLF cells; test: Leak-free marking: stained A375 cells co-cultured with unstained cells; format: cell-based, human; conditions: co-cultured with MDA-MB-231 or HLF cells for 24 h; CLSM
Source text: The cytocompatible nature of TCNTP and its precisely targeted interaction with organelles may account for the leak-free marking inside cells. A375 cells stained by TCNTP were co-cultured with MDA-MB-231 cells or human lung fibroblast (HLF) cells (normal human cell line), in order to evaluate whether TCNTP could be utilized to discriminate between different cell lines. TCNTP could easily stain the MDA-MB-231 cells and HLF cells in monoculture experiment (Fig. S22 ^†).
The excellent intracellular preservation of TCNTP may be used to develop novel fluorescent probes for differentiating specific cancerous cells from normal cells and for tracing diffusion, necrosis, shrinkage and suppression processes of tumor cells.
Fig. 6 The experimental scheme of TCNTP-stained (A) or Hoechst 33258-stained (F) A375 cells co-cultured with unstained cells. The CLSM imaging of co-cultivated TCNTP-stained (B) A375 cells and unstained MDA-MB-231 cells (the blue ellipses) or (D) TCNTP-stained A375 cells and unstained HLF cells (the blue ellipses). The average fluorescence intensity of TCNTP in four partial enlarged views (C and E). […] The average fluorescence intensity of Hoechst 33258 in four partial enlarged views (H and J). The blue fluorescence channel: excitation wavelength, 405 nm; emission collected, 425–485 nm. The yellow fluorescence channel: excitation wavelength, 405 nm; emission collected, 495–575 nm. […]

A375 cells = test: Long-term tracing of cancer cells over culture cycles (CLSM); format: cell-based, human; conditions: 3 μM for 4 h, after the fifth culture cycle (5 d)
Method: Due to reverse diffusion, most conventional dyes cannot be retained in living cells for more than a few hours.[35] Although some cell-tracker fluorescence dyes, for example Hoechst stains, can remain in viable cells for a few generations, they bind to DNA and thus interfere with DNA replication during cell division which can be cytotoxic. […] A375 cells were incubated separately with each of 3 μM TCNTP and Hoechst 33258. After 4 h incubation, the probe (or dye) was discarded and the labelled cells continued to be cultured overnight. Then the labelled cells were digested and divided into two dishes for another overnight incubation, referred to as one culture cycle. […] While the yellow fluorescence of TCNTP mainly distributed to cytoplasm for the third culture cycle (3 d) due to degradation of peptides and redistribution of the probe during cell division. […]
Fig. 5 The CLSM imaging of A375 cells treated with 3 μM TCNTP (A) and 3 μM Hoechst 33258 (B) for 4 h with further incubation for 1 d, 3 d and 5 d in cell culturing conditions. (C) The average fluorescence intensity of TCNTP and Hoechst 33258 in 60× microscopic field (the insets). […]
The cells stained by TCNTP were still visible even after the tenth culture cycle (Fig. S20 ^†), whereas very weak fluorescence signals were detected in the Hoechst 33258-stained cells after the third culture cycle (Fig. 5B). […]

[2] = system: MDA-MB-231 cells, HT-1080 cells, A375 cells and HLF cells; test: MTT assay of cell viability; format: cell-based; conditions: 1 μM, 5 μM and 10 μM for 48 h in triplicate, 96-well plate; absorbance 570 nm; all the cell lines
Method: Japan). All fluorescence images were analysed with FV10-ASW V4.0 Image software (Olympus). Three-dimensional map of cells were used 3D rendering by Imaris (Andor-Bitplane, Zurich). Co-localization analysis were used Image-Pro Plus 6.0.
The cytotoxic potential of PyTPE, Hoechst 33258 and TCNTP was assessed using the MTT assay. MDA-MB-231 cells, HT-1080 cells, A375cells and HLF cells were respectively treated with PyTPE (1 μM, 5 μM and 10 μM), Hoechst 33258 (1 μM, 5 μM and 10 μM) and TCNTP (1 μM, 5 μM and 10 μM) for 48 h in triplicate in a 96-well plate. The absorbance of MTT at 570 nm was recorded by the Infinite M200 PRO […]
Fig. S21 Metabolic viability of (A) MDA-MB-231 cells, (B) HT-1080 cells, (C) A375 cells and (D) HLF cells after incubation with PyTPE and TCNTP at concentrations of 1 μM, 5 µM and 10 µM for 48 h. Black bars represent PyTPE, red bars represent TCNTP and blue bars […]
Fig. S22 Fluorescence images of HLF cells treated with 3 µM PyTPE (A) and TCNTP (B) with Hoechst 33258 of each formulation for 12h in cell culturing condition. The white scale […]

In the case of `CN1CCN(c2ccc3[nH]c(-c4ccc5[nH]c(-c6ccc(O)cc6)nc5c4)nc3c2)CC1` [Hoechst 33258], the “leakage of dye from stained A375 cells into unstained cells” value [1] is reported as “fast leakage”, the “Active Cells Remaining (number of remaining stained living cells)” value (A375 cells; 10× microscopic field) is reported as 2% and the “Signal Remaining (fluorescence signal remaining)” value (A375 cells; 60× microscopic field) is reported as 6%. The “toxicity by MTT assay of cell viability” value [2] was “high toxicity”.
